# Data from patent US11833256B2, “Selective RARγ ligand-loaded nanoparticles for manipulation of targeted bone growth” (University Of Maryland, Baltimore, priority 2017, dated 2023).
# What was measured:
# [1] = Nanoparticle characterisation (size, drug loading); settings: in PLA-based NP
# Protocol: The drug loading of NP was determined spectrophotometrically against suitable calibration curves following two-step drug extraction in sec-butanol. Particle size measurements were performed by dynamic light scattering using a 90 Plus Particle Size Analyzer. An external sink method was applied for measuring drug release kinetics under sink conditions as follows: NP were diluted in PBS/2% bovine serum albumin and incubated with a water-immiscible acceptor medium (1-octanol and n-heptane, 1:1 v/v), and the released drug assayed spectrophotometrically in the acceptor medium samples at predetermined time-points.
# [2] = system: heterotopic ossification (HO) in FOP patients; settings: systemic palovarotene; top-line results of ongoing Phase II trial; cited from earlier work
# [3] = Hydrophobicity of acetaminophen-capped prodrug derivative versus parent; type: physicochemical; settings: acetaminophen-capped derivative vs parent retinoid
# Text: In order to produce an in situ activatable, reversibly hydrophobized prodrug derivatives of a RARγ agonist, a pro-drug can be delivered in a nanoparticle formulation. […] However, the ionizable carboxylic group promotes the partitioning of the compound from the particle to the surrounding aqueous medium. […] The compound would be activatable upon release can increase the stability of the particle-cargo association and help achieve a more lasting and highly localized therapeutic effect. Such constructs are in essence mutual prodrugs or co-drugs, as they regenerate in one step the retinoid compound and acetaminophen, a biologically active “helper” agent, which can play an important supporting role in therapy.
# RARγ = biological target: T1, RARγ (Homo sapiens, UniProt P13631); assay: Potency (ED50/EC50) of RARγ agonists
# T1 sequence (P13631 1-454): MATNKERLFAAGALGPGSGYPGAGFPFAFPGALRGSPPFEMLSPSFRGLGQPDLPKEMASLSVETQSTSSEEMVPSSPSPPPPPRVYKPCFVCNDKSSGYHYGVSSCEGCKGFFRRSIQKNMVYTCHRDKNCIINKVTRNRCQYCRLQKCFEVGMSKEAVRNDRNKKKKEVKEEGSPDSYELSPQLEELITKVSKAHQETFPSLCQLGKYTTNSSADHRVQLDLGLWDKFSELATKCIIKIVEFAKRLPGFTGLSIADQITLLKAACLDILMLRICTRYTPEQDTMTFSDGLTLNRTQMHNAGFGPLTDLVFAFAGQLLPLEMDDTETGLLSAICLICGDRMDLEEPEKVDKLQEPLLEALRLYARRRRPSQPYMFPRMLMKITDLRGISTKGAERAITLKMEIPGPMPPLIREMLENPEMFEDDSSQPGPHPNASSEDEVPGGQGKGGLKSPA
# [4] = system: heterotopic ossification (HO); assay: Heterotopic ossification in FOP model mice, oral palovarotene; type: in vivo, mouse; settings: oral administration
# Text: As discussed above, control and adjustment of specific long bone growth dysregulation requires achieving a highly localized and sustained therapeutic effect. Today, surgical resection combined with systemically administered anti-inflammatory drugs is the primary treatment modality for acquired HO. Treatment options for FOP are further limited. Because the surgical procedure itself can induce additional HO formation, systemic drug therapy aimed at reducing HO progression and related symptoms is the sole choice. […] However, despite the significant reduction in HO with this treatment regimen, systemic administration of the RARγ agonist fails to completely prevent the disease. Enhancing efficacy by increasing the systemic drug dosage may not be possible without causing strong and even toxic off-target effects. Thus, the inventive methods of treatment here increase the activity at the target site without inducing unwanted systemic effects using biodegradable nanoparticle (NP) formulations impregnated with a potent RARγ agonist capable of targeting specific areas of bone.
# Acvr1cR206H/+; R26-rtTA; tetO-cre mice, treated with doxycycline to induce global expression of Acvr1cR206H/+, were subjected to hindlimb muscle injury with cardiotoxin and examined by μCT imaging 14 days after treatment with palovarotene (right) or vehicle (left). […]
# Chick limb bud cells = assay: Limb bud cell high density culture, cartilage matrix by Alcian blue; type: cell-based; settings: RA 1 μM or AGN194310 100 nM for 6 days
# Protocol: The limb bud cells were inoculated at a high density and treated with retinoids. Cartilage matrix accumulation was visualized by Alcian blue staining. […] Similar testing was described in Hoffman et al., J. Cell. Biol. 174:101-113, 2006. Chick limb bud cells were isolated from […], seeded at the density of 4×10^5 cells in 10 μL and maintained in 1% FBS containing high glucose DMEM for 3 days. Cultures then were treated with 0.1% EtOH (vehicle), retinoic acid (RA) 1 μM or AGN194310 100 nM for 6 days, fixed, and stained with Alcian Blue, pH 1.0.
compound,measurement,setting,value
CC(=O)Nc1ccc(OC(=O)c2ccc3cc(C4(c5ccc6c(c5)C(C)(C)CCC6(C)C)SCCS4)ccc3c2)cc1 [MM 11253 prodrug],average particle size,[1],565 nm
same,drug loading,[1],1 mg/mL
same,entrapment yield,[1],67%
same,polydispersity index,[1],< 0.1
CC1(C)CCC(C)(C)c2cc(Cn3cccn3)c(/C=C/c3ccc(C(=O)O)cc3)cc21 [palovarotene],reduction of HO in patients,[2],up to 70%
same,more hydrophobic derivative if modified with acetaminophen,[3],15 fold
same,potency (EC50) compared with NRX204647,RARγ,inferior to that of NRX204647
same,HO in FOP model mice,[4],effectively reduces HO
CCc1ccc(C2=CC(C)(C)Sc3ccc(C#Cc4ccc(C(=O)O)cc4)cc32)cc1 [AGN194310],cartilage matrix production / cartilage forming region (Alcian blue),Chick limb bud cells,enhanced
